Measurements published in patent US9302998B2, “Aryl triazole compounds with antitumoural activity” (SIGMA-TAU RESEARCH SWITZERLAND S.A., priority 2010, dated 2016).

How the values were obtained:
HeLa cervix uteri = test: Sulphorodamine B test at single concentration, HeLa; format: cell-based; conditions: Homo sapiens, 500 nM, 72 h
Procedure: (§1) The antiproliferative activity of novel Hsp90 inhibitors was also evaluated on various cancerous cell lines by means of the sulphorodamine B test (i.e., NCI-H460 non-small cell lung carcinoma, A431 epidermoid, A2780 ovarian, MDA-MB436 triple-negative breast, U87MG glioblastoma, A498 renal, HCT116 colon, MeWo melanoma, MiaPaCa2 pancreas, HeLa cervix uteri, NB4 promyelocytic leukemia). NCI-H460, A431, MDA-MB436, A2780, A498, HeLa, NB4 tumour cells were grown in RPMI 1640 containing 10% fetal bovine serum (i.e., FBS from GIBCO), L-glutamine, and 50 μg/ml gentamycin sulfate.
(§2) All cell lines were maintained in a 37° C. incubator with saturated humidity and an atmosphere containing 95% air and 5% CO2, and were sub-cultured every 2-3 days. Tumour cells were seeded in 96-well tissue culture plates at approximately 10% confluence and were allowed to attach and recover for 24 h.
(§3) Varying concentrations of the drugs were then added to each well to calculate their IC50 value (the concentration which inhibits the 50% of cell survival). The plates were incubated at 37° C. for 72 h. At the end of the treatment, the plates were washed by remotion of the supernatant and addition of PBS 3 times. 200 μl PBS and 50 μl of cold 80% trichloroacetic acid (TCA) were added. The plates were incubated on ice for at least 1 h. TCA was removed, the plates were washed 3 times by immersion in distilled-water and dried on paper and at 40° C. for […]. Then 200 μl of 0.4% sulphorodamine B in 1% acetic acid were added. The plates were incubated at room temperature for 30 min. Sulphorodamine B was removed, the plates were washed by immersion in 1% acetic acid for 3 times, then they were dried on paper and at 40° C. for 5 min. Then, 200 μl Tris 10 mM were added, the plates were kept under stirring for 20 min. The cell survival was determined as optical density by a Multiskan […] at 540 nm. The amount of cells killed was calculated as the percentage decrease in sulphorodamine B binding compared with control cultures.
(§4) The other cell lines were screened against one single concentration of the various inhibitors (i.e., 500 nM), all experiments being made in octuplicate, following the protocol described at example 35. Since NB4 cell line was grown in suspension, a further step of centrifugation (i.e., 1600 g for 10 min) was added after the 72 hour incubation period.

MeWo melanoma = test: Sulphorodamine B test at single concentration, MeWo; format: cell-based; conditions: Homo sapiens, 500 nM, 72 h
Procedure: as §1
(§5) MeWo and U87-MG cells were cultured in Eagle's Minimum Essential Medium (i.e., EMEM) containing 10% FBS, L-glutamine, 1 mM sodium pyruvate, 0.1 mM non-essential amino acids, 1.5 g/l sodium bicarbonate, and 50 μg/ml gentamycin sulphate.
as §2, §3, §4

A498 renal = test: Sulphorodamine B test at single concentration, A498; format: cell-based; conditions: Homo sapiens, 500 nM, 72 h
Procedure: as §1, §2, §3, §4

A431 epidermoid = test: Sulphorodamine B test at single concentration, A431; format: cell-based; conditions: Homo sapiens, A-431; 500 nM, 72 h
Procedure: as §1, §2, §3, §4

MiaPaCa2 pancreas = test: Sulphorodamine B test at single concentration, MiaPaCa2; format: cell-based; conditions: Homo sapiens, MIA PaCa-2; 500 nM, 72 h
Procedure: as §1
MiaPaCa2 cells were cultured in DMEM medium containing 10% FBS, L-glutamine, and 50 μg/ml gentamycin sulfate.
as §2, §3, §4

[1] = test system: NCI-H460 non-small cell lung carcinoma; test: Cytotoxicity assay, sulphorodamine B test, NCI-H460; format: cell-based; conditions: Homo sapiens, NCI-H460; 72 h, sulphorodamine B
Procedure: as §1, §2, §3

U87MG glioblastoma = test: Sulphorodamine B test at single concentration, U87MG; format: cell-based; conditions: Homo sapiens, U-87 MG; 500 nM, 72 h
Procedure: as §1, §5, §2, §3, §4

[2] = test system: MDA-MB436 triple-negative breast; test: Sulphorodamine B test at single concentration, MDA-MB436; format: cell-based; conditions: Homo sapiens, MDA-MB-436; 500 nM, 72 h
Procedure: as §1, §2, §3, §4

[3] = test system: NB4 promyelocytic leukemia; test: Sulphorodamine B test at single concentration, NB4; format: cell-based; conditions: 500 nM, 72 h, suspension cells
Procedure: as §1, §2, §3, §4

Hsp90 = molecular target: T1, Hsp90 (Homo sapiens, UniProt P07900); test: Fluorescence Polarization (FP) binding, GM-BODIPY displacement from Hsp90; conditions: GM-BODIPY tracer, 4° C. for 4 hours
T1 construct: purchased Stressgen SPP-776
Procedure: GM-BODIPY (PerkinElmer, CUSN60342000MG) was previously dissolved in DMSO to obtain 10 mM stock solutions and kept at −20° C. until use.
Hsp90 (Stressgen, SPP-776), was previously dissolved in assay buffer (HFB) to form 2.2 μM stock solutions and kept at −80° C. until use.
The compounds were previously dissolved in DMSO to obtain stock solutions and kept at −20° C. The day of experiment, the compounds were prepared by serial dilutions in assay buffer (HFB) containing 20 mM HEPES (K) pH 7.3, 50 mM KCl, 5 mM MgCl2, 20 mM Na2MoO4 and 0.01% NP40. Before each use, 0.1 mg/ml Bovine Gamma globulin and 2 mM DTT were freshly added.
Fluorescence Polarization (FP) was performed in Opti-Plate™-96F well plates (Perkin Elmer, Zaventem, Belgium) using a plate reader (Wallac Envision 2101 multilabel reader, Perkin Elmer, Zaventem, Belgium). To evaluate the binding affinity of the molecules, 50 μl of the GM-BODIPY solution (100 nM) were added to 125 nM of Hsp90 in the presence of 5 μl of the test compounds at increasing concentrations. The plate was mixed on a shaker at 4° C. for 4 hours, and the FP values in mP (millipolarization units) were recorded. The IC50 values were calculated as the inhibitor concentration where 50% of the tracer is displaced; each data point is the result of the average of triplicate wells, and was determined from a plot using nonlinear least-squares analysis. Curve fitting was performed using
Prism GraphPad software program (GraphPad software, Inc., San Diego, Calif.).

HCT116 colon = test: Sulphorodamine B test at single concentration, HCT116; format: cell-based; conditions: Homo sapiens, HCT-116; 500 nM, 72 h
Procedure: as §1
HCT116 cells were cultured in McCoy's medium containing 10% FBS, L-glutamine, and 50 μg/ml gentamycin sulfate.
as §2, §3, §4

A2780 ovarian = test: Sulphorodamine B test at single concentration, A2780; format: cell-based; conditions: Homo sapiens, 500 nM, 72 h
Procedure: as §1, §2, §3, §4

Structure (SMILES) | IC50 (Hsp90) | inhibition at 0.5 µM (HeLa cervix uteri) | inhibition at 0.5 µM (MeWo melanoma) | inhibition at 0.5 µM (A498 renal) | inhibition at 0.5 µM (A431 epidermoid) | inhibition at 0.5 µM (MiaPaCa2 pancreas) | IC50 [1] | inhibition at 0.5 µM (U87MG glioblastoma) | inhibition at 0.5 µM [2] | inhibition at 0.5 µM [3] | inhibition at 0.5 µM (HCT116 colon) | inhibition at 0.5 µM (A2780 ovarian)
CC(C)c1cc(-n2nncc2-c2ccc(CN3CCCC(O)C3)cc2)c(O)cc1O (stereo not shown) [Example 2, 4-{5-[4-(3-hydroxy-piperidin-1-ylmethyl)-phenyl]-[1,2,3]triazol-1-yl}-6-isopropyl-benzene-1,3-diol] | < 50 nM | ≥ 50% | ≥ 50% | 30 to 50% | ≥ 50% | ≥ 50% | < 50 nM | 30 to 50% | ≥ 50% | ≥ 50% | ≥ 50% | ≥ 50%
CCNC(=O)c1nnn(-c2cc(C(C)C)c(O)cc2O)c1-c1ccc(CN2CCOCC2)cc1 [Example 5, 1-(2,4-dihydroxy-5-isopropyl-phenyl)-5-(4-morpholin-4-ylmethyl-phenyl)-1H-[1,2,3]triazole-4-carboxylic ethyl amide] | < 50 nM | ≥ 50% | ≥ 50% | ≥ 50% | ≥ 50% | ≥ 50% | < 50 nM | ≥ 50% | ≥ 50% | ≥ 50% | ≥ 50% | ≥ 50%
CCNC(=O)c1nnn(-c2cc(C(C)C)c(O)cc2O)c1-c1ccc(CN2CCC(N(C)C)CC2)cc1 [Example 13, 1-(2,4-dihydroxy-5-isopropyl-phenyl)-5-[4-(4-dimethylamino-piperidin-1-ylmethyl)-phenyl]-1H-[1,2,3]triazole-4-carboxylic acid ethylamide] | < 50 nM | 30 to 50% | ≥ 50% | 30 to 50% | ≥ 50% | ≥ 50% | 100 to 500 nM | ≥ 50% | ≥ 50% |  | ≥ 50% | ≥ 50%
CCNC(=O)c1nnn(-c2cc(C(C)C)c(O)cc2O)c1-c1ccc(CNCCN2CCOCC2)cc1 [Example 14, 1-(2,4-dihydroxy-5-isopropyl-phenyl)-5-{4-[(2-morpholin-4-yl-ethylamino)-methyl]-phenyl}-1H-[1,2,3]triazole-4-carboxylic acid ethylamide] | < 50 nM |  | ≥ 50% |  | ≥ 50% | ≥ 50% | 100 to 500 nM | ≥ 50% | ≥ 50% |  | 30 to 50% | ≥ 50%
CCNC(=O)c1nnn(-c2cc(C(C)C)c(O)cc2O)c1-c1ccc(Cn2ccnc2)cc1 [Example 22, 1-(2,4-dihydroxy-5-isopropyl-phenyl)-5-(4-imidazol-1-ylmethyl-phenyl)-1H-[1,2,3]triazole-4-carboxylic acid ethylamide] | < 50 nM | ≥ 50% | ≥ 50% | ≥ 50% | ≥ 50% | ≥ 50% |  | ≥ 50% | ≥ 50% | ≥ 50% | ≥ 50% | ≥ 50%
CCNC(=O)c1nnn(-c2cc(C(C)C)c(O)cc2O)c1NCc1ccc(N2CCOCC2)cc1 [Example 26, 1-(2,4-dihydroxy-5-isopropyl-phenyl)-5-(4-morpholin-4-yl-benzylamino)-1H-[1,2,3]triazole-4-carboxylic acid ethylamide] | < 50 nM |  | 30 to 50% | ≥ 50% |  | ≥ 50% | 100 to 500 nM |  |  | 30 to 50% | ≥ 50% | ≥ 50%

Continued, in another order:

IC50 (Hsp90) | Structure (SMILES) | inhibition at 0.5 µM (HeLa cervix uteri) | inhibition at 0.5 µM (MeWo melanoma) | inhibition at 0.5 µM (A498 renal) | inhibition at 0.5 µM (A431 epidermoid) | inhibition at 0.5 µM (MiaPaCa2 pancreas) | IC50 [1] | inhibition at 0.5 µM (U87MG glioblastoma) | inhibition at 0.5 µM [2] | inhibition at 0.5 µM [3] | inhibition at 0.5 µM (HCT116 colon) | inhibition at 0.5 µM (A2780 ovarian)
< 50 nM | CCNC(=O)c1nnn(-c2cc(C(C)C)c(O)cc2O)c1-c1ccc(CN2CCCC(O)C2)cc1 (racemic) [Example 6, (R,S)-1-(2,4-dihydroxy-5-isopropyl-phenyl)-5-[4-(3-hydroxy-piperidin-1-ylmethyl)-phenyl]-1H-[1,2,3]triazole-4-carboxylic acid ethylamide] | ≥ 50% | ≥ 50% | ≥ 50% | ≥ 50% | ≥ 50% | 50 to 100 nM | ≥ 50% | ≥ 50% | ≥ 50% | ≥ 50% | ≥ 50%
< 50 nM | CC(C)c1cc(-n2nncc2-c2ccc(CN3CCN(Cc4ccccc4)CC3)cc2)c(O)cc1O [Example 3, 4-{5-[4-(4-benzyl-piperazin-1-ylmethyl)-phenyl]-[1,2,3]triazol-1-yl}-6-isopropyl-benzene-1,3-diol] | ≥ 50% | ≥ 50% | 30 to 50% | ≥ 50% | ≥ 50% | 100 to 500 nM |  | ≥ 50% | ≥ 50% | ≥ 50% | ≥ 50%
< 50 nM | CCNC(=O)c1nnn(-c2cc(C(C)C)c(O)cc2O)c1-c1ccc(CN2CCNCC2)cc1 [Example 12, 1-(2,4-dihydroxy-5-isopropyl-phenyl)-5-(4-piperazin-1-ylmethyl-phenyl)-1H-[1,2,3]triazole-4-carboxylic acid ethylamide] |  |  | 30 to 50% |  | ≥ 50% | 100 to 500 nM |  | ≥ 50% |  |  | ≥ 50%
< 50 nM | CCNC(=O)c1nnn(-c2cc(C(C)C)c(O)cc2O)c1-c1ccc(CN2CCCC2)cc1 [Example 21, 1-(2,4-dihydroxy-5-isopropyl-phenyl)-5-(4-pyrrolidin-1-ylmethyl-phenyl)-1H-[1,2,3]triazole-4-carboxylic acid ethylamide] | ≥ 50% | ≥ 50% | ≥ 50% | ≥ 50% | ≥ 50% |  | ≥ 50% | ≥ 50% | ≥ 50% | ≥ 50% | ≥ 50%
